Results taken from US9708318B2, “Bicyclic heterocycles as FGFR4 inhibitors” (Incyte Corporation, priority 2015, dated 2017).
Read-outs that look alike come from different tables or passages of the source.

Columns and labels:
FGFR2 = FGFR2 (Homo sapiens (Human), UniProt P21802); test: FGFR Enzymatic Assay (FRET peptide phosphorylation), FGFR2; format: biochemical
Description: (§1) The inhibitor potency of the exemplified compounds was measured in an enzyme assay that measures peptide phosphorylation using FRET measurements to detect product formation. Inhibitors were serially diluted in DMSO and a volume of 0.5 μL was transferred to the wells of a 384-well plate.
(§2) The enzymes were purchased from Millipore or Invitrogen.
(§3) GraphPad prism3 was used to analyze the data.

FGFR3 enzyme = FGFR3 enzyme (Homo sapiens (Human), UniProt P22607); test: FGFR Enzymatic Assay (FRET peptide phosphorylation), FGFR3; format: biochemical; settings: for FGFR1/FGFR3 IC50 ratio / FGFR4/FGFR3 IC50 ratio: FGFR3 selectivity
FGFR3 enzyme, sequence (P22607 23-806): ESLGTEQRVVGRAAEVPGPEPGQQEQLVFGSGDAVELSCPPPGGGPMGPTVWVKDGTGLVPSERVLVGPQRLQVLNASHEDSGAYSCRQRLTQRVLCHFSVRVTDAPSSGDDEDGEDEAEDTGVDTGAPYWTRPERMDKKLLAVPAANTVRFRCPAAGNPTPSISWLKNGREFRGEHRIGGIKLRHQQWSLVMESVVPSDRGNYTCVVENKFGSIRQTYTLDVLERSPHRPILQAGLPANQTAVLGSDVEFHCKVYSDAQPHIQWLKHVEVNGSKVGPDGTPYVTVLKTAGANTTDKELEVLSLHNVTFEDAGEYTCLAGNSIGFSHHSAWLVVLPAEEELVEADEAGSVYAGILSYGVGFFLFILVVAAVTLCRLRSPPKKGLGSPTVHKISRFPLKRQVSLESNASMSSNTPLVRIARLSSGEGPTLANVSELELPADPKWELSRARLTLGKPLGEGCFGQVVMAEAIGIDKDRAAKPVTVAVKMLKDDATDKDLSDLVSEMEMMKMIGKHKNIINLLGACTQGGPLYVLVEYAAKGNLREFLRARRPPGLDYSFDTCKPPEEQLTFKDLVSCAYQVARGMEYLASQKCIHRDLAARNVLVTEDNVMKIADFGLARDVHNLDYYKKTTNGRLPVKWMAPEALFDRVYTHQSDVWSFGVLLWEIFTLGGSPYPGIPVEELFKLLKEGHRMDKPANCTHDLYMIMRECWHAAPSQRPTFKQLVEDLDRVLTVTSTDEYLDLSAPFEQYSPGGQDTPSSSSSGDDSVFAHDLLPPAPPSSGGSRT
Description: as §1, §3

FGFR4 = FGFR4 (Homo sapiens (Human), UniProt P22455); test: FGFR Enzymatic Assay (FRET peptide phosphorylation), FGFR4; format: biochemical
FGFR4, sequence (P22455 22-802): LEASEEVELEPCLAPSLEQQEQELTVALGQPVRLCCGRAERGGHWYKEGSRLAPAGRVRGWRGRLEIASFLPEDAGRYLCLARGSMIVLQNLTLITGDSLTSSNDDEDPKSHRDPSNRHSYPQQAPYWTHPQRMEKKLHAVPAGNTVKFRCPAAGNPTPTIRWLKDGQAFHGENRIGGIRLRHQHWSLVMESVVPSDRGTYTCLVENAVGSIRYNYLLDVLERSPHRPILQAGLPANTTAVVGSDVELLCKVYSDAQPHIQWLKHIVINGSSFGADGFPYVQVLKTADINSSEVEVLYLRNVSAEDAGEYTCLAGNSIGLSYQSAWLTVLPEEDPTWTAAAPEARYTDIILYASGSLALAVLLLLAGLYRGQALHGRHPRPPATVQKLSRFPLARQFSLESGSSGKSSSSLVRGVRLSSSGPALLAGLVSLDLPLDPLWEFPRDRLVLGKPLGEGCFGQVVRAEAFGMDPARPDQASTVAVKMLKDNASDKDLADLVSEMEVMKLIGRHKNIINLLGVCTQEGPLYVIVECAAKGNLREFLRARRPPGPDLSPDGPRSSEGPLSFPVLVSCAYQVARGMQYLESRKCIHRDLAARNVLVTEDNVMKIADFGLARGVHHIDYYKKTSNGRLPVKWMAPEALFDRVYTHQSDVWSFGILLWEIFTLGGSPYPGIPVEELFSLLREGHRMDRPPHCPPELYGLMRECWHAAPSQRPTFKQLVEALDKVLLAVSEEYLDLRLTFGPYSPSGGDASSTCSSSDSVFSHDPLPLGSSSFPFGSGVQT
Description: as §1, §2, §3

FGFR1 = FGFR1 (Homo sapiens (Human), UniProt P11362); test: FGFR Enzymatic Assay (FRET peptide phosphorylation), FGFR1
FGFR1, sequence (P11362 22-822): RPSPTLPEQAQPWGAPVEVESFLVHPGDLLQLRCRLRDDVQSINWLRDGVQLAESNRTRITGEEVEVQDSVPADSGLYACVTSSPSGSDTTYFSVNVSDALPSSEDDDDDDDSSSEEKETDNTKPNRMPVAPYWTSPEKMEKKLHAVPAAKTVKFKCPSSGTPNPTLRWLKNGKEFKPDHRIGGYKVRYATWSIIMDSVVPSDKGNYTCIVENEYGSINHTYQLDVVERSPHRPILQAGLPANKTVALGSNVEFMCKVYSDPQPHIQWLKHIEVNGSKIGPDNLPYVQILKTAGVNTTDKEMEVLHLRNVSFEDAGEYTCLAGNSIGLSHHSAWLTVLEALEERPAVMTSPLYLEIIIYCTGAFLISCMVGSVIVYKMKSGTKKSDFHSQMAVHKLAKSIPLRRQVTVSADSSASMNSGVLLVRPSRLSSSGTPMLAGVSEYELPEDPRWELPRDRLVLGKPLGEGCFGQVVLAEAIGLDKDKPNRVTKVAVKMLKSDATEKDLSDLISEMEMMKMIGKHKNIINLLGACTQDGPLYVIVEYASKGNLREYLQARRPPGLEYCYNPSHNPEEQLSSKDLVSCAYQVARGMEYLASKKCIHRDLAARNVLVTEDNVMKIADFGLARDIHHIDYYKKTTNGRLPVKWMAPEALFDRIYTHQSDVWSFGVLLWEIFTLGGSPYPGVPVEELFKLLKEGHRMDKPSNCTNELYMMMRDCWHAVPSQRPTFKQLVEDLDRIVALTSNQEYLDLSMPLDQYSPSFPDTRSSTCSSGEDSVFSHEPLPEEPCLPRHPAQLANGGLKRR

[1] = pre-incubated for 4 hours, read-out: FGFR3 IC50
[2] = FGFR1 IC50 (nM), pre-incubated for 4 hours
[3] = pre-incubated for 5 to 10 minutes
[4] = pre-incubated for 5 to 10 minutes, read-out: FGFR3 IC50
[5] = FGFR1 IC50 (nM), pre-incubated for 5 to 10 minutes

FGFR2, sequence (P21802 22-821): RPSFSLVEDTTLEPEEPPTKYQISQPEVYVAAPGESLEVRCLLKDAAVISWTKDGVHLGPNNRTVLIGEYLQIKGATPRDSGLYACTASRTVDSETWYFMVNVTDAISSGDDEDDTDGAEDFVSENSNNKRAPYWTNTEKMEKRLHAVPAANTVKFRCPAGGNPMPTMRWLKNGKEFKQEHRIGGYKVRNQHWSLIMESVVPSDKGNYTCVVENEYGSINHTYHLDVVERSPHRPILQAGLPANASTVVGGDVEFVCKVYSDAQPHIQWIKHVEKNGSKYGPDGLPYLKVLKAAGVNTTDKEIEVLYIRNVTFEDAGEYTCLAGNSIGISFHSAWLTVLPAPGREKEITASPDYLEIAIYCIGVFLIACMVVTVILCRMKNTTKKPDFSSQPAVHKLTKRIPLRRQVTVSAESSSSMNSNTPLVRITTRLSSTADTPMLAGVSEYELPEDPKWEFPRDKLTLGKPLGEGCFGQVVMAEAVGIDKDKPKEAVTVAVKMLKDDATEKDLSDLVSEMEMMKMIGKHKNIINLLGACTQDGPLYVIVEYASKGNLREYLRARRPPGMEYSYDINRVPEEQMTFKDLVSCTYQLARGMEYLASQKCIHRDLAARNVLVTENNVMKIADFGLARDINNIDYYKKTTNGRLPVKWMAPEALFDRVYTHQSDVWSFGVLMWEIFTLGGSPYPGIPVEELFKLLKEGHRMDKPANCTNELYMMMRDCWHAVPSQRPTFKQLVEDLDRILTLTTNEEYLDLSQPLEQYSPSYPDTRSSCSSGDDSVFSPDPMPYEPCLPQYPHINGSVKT

Row | SMILES | IC50 (FGFR2; pre-incubated for 4 hours) | FGFR1/FGFR3 IC50 ratio (FGFR3 enzyme; pre-incubated for 4 hours) | FGFR4/FGFR3 IC50 ratio (FGFR3 enzyme; pre-incubated for 4 hours) | IC50 (FGFR3 enzyme; [1]) | IC50 (FGFR4; pre-incubated for 4 hours) | IC50 (FGFR1; [2]) | IC50 (FGFR2; [3]) | IC50 (FGFR3 enzyme; [4]) | IC50 (FGFR4; [3]) | IC50 (FGFR1; [5]) | IC50 (FGFR3 enzyme) | IC50 (FGFR1) | IC50 (FGFR1; read-out: FGFR1 IC50, pre-incubated for 4 hours)
1 | COc1cc(OC)c(F)c(N2Cc3cnc(-c4cn(C)nc4C)cc3N(c3ncccn3)C2=O)c1F [Example 105, 3-(2,6-difluoro-3,5-dimethoxyphenyl)-7-(1,3-dimethyl-1H-pyrazol-4-yl)-1-(pyrimidin-2-yl)-3,4-dihydropyrido[4,3-d]pyrimidin-2(1H)-one] | 0.01 to 0.03 µM | >3 | >5 | 0.01 to 0.03 µM | 0.03 to 0.2 µM | 30 to 200 nM | – | – | – | – | – | – | –
2 | CCc1cnc(N2C(=O)N(c3c(F)c(OC)cc(OC)c3F)Cc3cnc(-c4cn(C)nc4C)cc32)cn1 [Example 106, 3-(2,6-difluoro-3,5-dimethoxyphenyl)-7-(1,3-dimethyl-1H-pyrazol-4-yl)-1-(5-ethylpyrazin-2-yl)-3,4-dihydropyrido[4,3-d]pyrimidin-2(1H)-one] | 0.03 to 0.2 µM | >3 | >5 | 0.01 to 0.03 µM | 0.03 to 0.2 µM | 30 to 200 nM | – | – | – | – | – | – | –
3 | COc1cc(OC)c(F)c(N2Cc3cnc(-c4cn(C)nc4C)cc3N(c3cnc(C)cn3)C2=O)c1F [Example 107, 3-(2,6-difluoro-3,5-dimethoxyphenyl)-7-(1,3-dimethyl-1H-pyrazol-4-yl)-1-(5-methylpyrazin-2-yl)-3,4-dihydropyrido[4,3-d]pyrimidin-2(1H)-one] | 0.01 to 0.03 µM | >3 | >10 | 0.01 to 0.03 µM | 0.03 to 0.2 µM | 30 to 200 nM | – | – | – | – | – | – | –
4 | COc1cc(OC)c(F)c(N2Cc3cnc(-c4cn(C)nc4C)cc3N(C[C@H]3CCOC3)C2=O)c1F [Example 108, (R)-3-(2,6-difluoro-3,5-dimethoxyphenyl)-7-(1,3-dimethyl-1H-pyrazol-4-yl)-1-((tetrahydrofuran-3-yl)methyl)-3,4-dihydropyrido[4,3-d]pyrimidin-2(1H)-one] | 0.01 to 0.03 µM | >3 | >3 | 0.01 to 0.03 µM | 0.03 to 0.2 µM | 30 to 200 nM | – | – | – | – | – | – | –
5 | COc1cccc(N2C(=O)N(c3c(F)c(OC)cc(OC)c3F)Cc3cnc(-c4cn(C)nc4C)cc32)c1 [Example 109, 3-(2,6-difluoro-3,5-dimethoxyphenyl)-7-(1,3-dimethyl-1H-pyrazol-4-yl)-1-(3-methoxyphenyl)-3,4-dihydropyrido[4,3-d]pyrimidin-2(1H)-one] | < 0.01 µM | >3 | >10 | < 0.01 µM | 0.03 to 0.2 µM | 10 to 30 nM | – | – | – | – | – | – | –
6 | COc1cc(OC)c(F)c(N2Cc3cnc(-c4cn(C)nc4C)cc3N(c3ccccc3F)C2=O)c1F [Example 110, 3-(2,6-difluoro-3,5-dimethoxyphenyl)-7-(1,3-dimethyl-1H-pyrazol-4-yl)-1-(2-fluorophenyl)-3,4-dihydropyrido[4,3-d]pyrimidin-2(1H)-one] | < 0.01 µM | >3 | >5 | < 0.01 µM | 0.03 to 0.2 µM | 10 to 30 nM | – | – | – | – | – | – | –
7 | CNS(=O)(=O)c1cccc(N2C(=O)N(c3c(F)c(OC)cc(OC)c3F)Cc3cnc(-c4cn(C)nc4C)cc32)c1 [Example 111, 3-(3-(2,6-difluoro-3,5-dimethoxyphenyl)-7-(1,3-dimethy-1H-pyrazol-4-yl)-2-oxo-3,4-dihydropyrido[4,3-d]pyrimidin-1(2H)-yl)-N-methylbenzenesulfonamide] | < 0.01 µM | >3 | >5 | < 0.01 µM | 0.03 to 0.2 µM | 10 to 30 nM | – | – | – | – | – | – | –
8 | COc1cnc(N2C(=O)N(c3c(F)c(OC)cc(OC)c3F)Cc3cnc(-c4cn(C)nc4C)cc32)cn1 [Example 112, 3-(2,6-difluoro-3,5-dimethoxyphenyl)-7-(1,3-dimethyl-1H-pyrazol-4-yl)-1-(5-methoxypyrazin-2-yl)-3,4-dihydropyrido[4,3-d]pyrimidin-2(1H)-one] | < 0.01 µM | >3 | >5 | < 0.01 µM | 0.03 to 0.2 µM | 30 to 200 nM | – | – | – | – | – | – | –
9 | COc1cc(OC)c(F)c(N2Cc3cnc(-c4cn(C)nc4C)cc3N(c3ccc(C(=O)N(C)C)cc3)C2=O)c1F [Example 113, 4-(3-(2,6-difluoro-3,5-dimethoxyphenyl)-7-(1,3-dimethyl-1H-pyrazol-4-yl)-2-oxo-3,4-dihydropyrido[4,3-d]pyrimidin-1(2H)-yl)-N,N-dimethylbenzamide] | < 0.01 µM | >3 | >5 | 0.01 to 0.03 µM | 0.03 to 0.2 µM | 30 to 200 nM | – | – | – | – | – | – | –
10 | COc1cc(OC)c(F)c(N2Cc3cnc(-c4cn(C)nc4C)cc3N(c3ccc(-c4nnc(C)o4)cc3)C2=O)c1F [Example 115, 3-(2,6-difluoro-3,5-dimethoxyphenyl)-7-(1,3-dimethyl-1H-pyrazol-4-yl)-1-(4-(5-methyl-1,3,4-oxadiazol-2-yl)phenyl)-3,4-dihydropyrido[4,3-d]pyrimidin-2(1H)-one] | < 0.01 µM | >3 | >5 | < 0.01 µM | 0.03 to 0.2 µM | 30 to 200 nM | – | – | – | – | – | – | –
11 | CCOc1cc(CN2C(=O)N(c3c(F)c(OC)cc(OC)c3F)Cc3cnc(-c4cn(C)nc4C)cc32)ccn1 [Example 116, 3-(2,6-difluoro-3,5-dimethoxyphenyl)-7-(1,3-dimethyl-1H-pyrazol-4-yl)-1-((2-ethoxypyridin-4-yl)methyl)-3,4-dihydropyrido[4,3-d]pyrimidin-2(1H)-one] | – | – | – | – | – | – | < 0.01 µM | < 0.01 µM | 0.01 to 0.03 µM | 10 to 30 nM | – | – | –
12 | COc1cc(OC)c(F)c(N2Cc3cnc(-c4cn(C)nc4C)cc3N(Cc3ccc4c(c3)nnn4C)C2=O)c1F [Example 118, 3-(2,6-difluoro-3,5-dimethoxyphenyl)-7-(1,3-dimethyl-1H-pyrazol-4-yl)-1-((1-methyl-1H-benzo[d][1,2,3]triazol-5-yl)methyl)-3,4-dihydropyrido[4,3-d]pyrimidin-2(1H)-one] | – | – | – | – | – | – | 0.01 to 0.03 µM | 0.01 to 0.03 µM | 0.03 to 0.2 µM | 30 to 200 nM | – | – | –
13 | COc1cc(OC)c(F)c(N2Cc3cnc(-c4cn(C)nc4C)cc3N(c3ccc4c(c3)CC(=O)N4)C2=O)c1F [Example 119, 3-(2,6-difluoro-3,5-dimethoxyphenyl)-7-(1,3-dimethyl-1H-pyrazol-4-yl)-1-(2-oxoindolin-5-yl)-3,4-dihydropyrido[4,3-d]pyrimidin-2(1H)-one] | – | – | – | – | – | – | < 0.01 µM | < 0.01 µM | 0.01 to 0.03 µM | 10 to 30 nM | – | – | –
14 | COc1cc(OC)c(F)c(N2Cc3cnc(-c4cn(C)nc4C)cc3N(Cc3ccnc(C)n3)C2=O)c1F [Example 121, 3-(2,6-difluoro-3,5-dimethoxyphenyl)-7-(1,3-dimethyl-1H-pyrazol-4-yl)-1-((2-methylpyrimidin-4-yl)methyl)-3,4-dihydropyrido[4,3-d]pyrimidin-2(1H)-one] | – | – | – | – | – | – | < 0.01 µM | < 0.01 µM | 0.03 to 0.2 µM | 10 to 30 nM | – | – | –
15 | COC(=O)N1CCC(N2C(=O)N(c3c(F)c(OC)cc(OC)c3F)Cc3cnc(-c4cn(C)nc4C)cc32)CC1 [Example 122, Methyl 4-(3-(2,6-difluoro-3,5-dimethoxyphenyl)-7-(1,3-dimethyl-1H-pyrazol-4-yl)-2-oxo-3,4-dihydropyrido[4,3-d]pyrimidin-1(2H)-yl)piperidine-1-carboxylate] | 0.01 to 0.03 µM | >5 | >5 | – | 0.03 to 0.2 µM | – | – | – | – | – | 0.01 to 0.03 µM | 30 to 200 nM | –
16 | COC(=O)Nc1ccc(N2C(=O)N(c3c(F)c(OC)cc(OC)c3F)Cc3cnc(-c4cn(C)nc4C)cc32)cc1 [Example 123, Methyl 4-(3-(2,6-difluoro-3,5-dimethoxyphenyl)-7-(1,3-dimethyl-1H-pyrazol-4-yl)-2-oxo-3,4-dihydropyrido[4,3-d]pyrimidin-1(2H)-yl)phenylcarbamate] | < 0.01 µM | >5 | >3 | < 0.01 µM | 0.01 to 0.03 µM | 30 to 200 nM | – | – | – | – | – | – | –
17 | COc1cc(OC)c(F)c(N2Cc3cnc(-c4cn(C)nc4C)cc3N(Cc3cnn(C4CC4)c3)C2=O)c1F [Example 124, 1-((1-cyclopropyl-1H-pyrazol-4-yl)methyl)-3-(2,6-difluoro-3,5-dimethoxyphenyl)-7-(1,3-dimethyl-1H-pyrazol-4-yl)-3,4-dihydropyrido[4,3-d]pyrimidin-2(1H)-one] | < 0.01 µM | >10 | >10 | < 0.01 µM | < 0.01 µM | – | – | – | – | – | – | – | < 10 nM
18 | COc1cc(OC)c(F)c(N2Cc3cnc(-c4cn(C)nc4C)cc3N(Cc3cnn(CC#N)c3)C2=O)c1F [Example 125, 2-(4-((3-(2,6-difluoro-3,5-dimethoxyphenyl)-7-(1,3-dimethyl-1H-pyrazol-4-yl)-2-oxo-3,4-dihydropyrido[4,3-d]pyrimidin-1(2H)-yl)methyl)-1H-pyrazol-1-yl)acetonitrile] | < 0.01 µM | >5 | >5 | 0.01 to 0.03 µM | 0.03 to 0.2 µM | 30 to 200 nM | – | – | – | – | – | – | –
19 | COc1cc(OC)c(F)c(N2Cc3cnc(-c4cn(C)nc4C)cc3N(Cc3cnn(CC4CC4)c3)C2=O)c1F [Example 126, 1-((1-(cyclopropylmethyl)-1H-pyrazol-4-yl)methyl)-3-(2,6-difluoro-3,5-dimethoxyphenyl)-7-(1,3-dimethyl-1H-pyrazol-4-yl)-3,4-dihydropyrido[4,3-d]pyrimidin-2(1H)-one] | – | – | – | – | – | – | < 0.01 µM | < 0.01 µM | 0.03 to 0.2 µM | 10 to 30 nM | – | – | –
